Where two headings read alike, the source gives them in different places. Bridge positions count the residues as written; N and C are the ends. Square brackets hold non-standard residues; d marks the D form. Peptide text beside a SMILES is read from it. * marks the point of attachment. NMe2Val = CC(C)[C@@H](C(=O)*)N(C)C; NMeI = CC[C@H](C)[C@H](NC)C(=O)O; NMeT = CN[C@H](C(=O)O)[C@@H](C)O; NMeL = CN[C@@H](CC(C)C)C(=O)O; dHiv = CC(C)[C@@H](O)C(=O)O; NMeS = CN[C@@H](CO)C(=O)O; dNMeA = CN[C@H](C)C(=O)O
Key:
[1] = test system: HCT116 resistant line 100-3; assay: Cell viability, Alamar Blue, CbA-resistant line; assay type: cell-based, human; conditions: 72 h, n = 4 (Figure 5A), read-out: HCT116 Resistant lines IC50 (100-3)
Experimental: (§1) Figure 5 CbA mode of inhibition is specific compared to known Sec61 inhibitors. (A) Cell viability was measured by Alamar Blue assay (mean ± SD, n = 4, all cell lines assayed simultaneously) for HCT-116 cell lines isolated on the basis of CbA resistance in the presence of concentration series of indicated compounds. (B) Cell viability was measured by Alamar Blue assay (mean ± SD, n = 4, all cell lines assayed simultaneously) for HEK293FRT cells stably expressing Sec61α mutants in the presence of concentration series of indicated compounds. (C) Comparison of published NCI60 data for CbA,[3] AprA,[11] and IpoF.[33] The heat map was derived by plotting each GI50 value divided by the median GI50 for that compound. X indicates a cell line that was not tested. Closed arrowhead indicates cell lines with most notable differences across the three compounds. TEXT PRINTED IN THE PICTURE: (A) CbA: HCT116 Resistant lines IC50(nM): 24 (WT); HCT116 Resistant lines IC50(nM): 6500 (100-1); HCT116 Resistant lines IC50(nM): 7500 (100-2); HCT116 Resistant lines IC50(nM): 5800 (100-3); HCT116 Resistant lines IC50(nM): 7800 (100-4); HCT116 Resistant lines IC50(nM): 3800 (100-5) | (A) AprA: HCT116 Resistant lines IC50(nM): 80 (WT); HCT116 Resistant lines IC50(nM): >10000 (100-1); HCT116 Resistant lines IC50(nM): >10000 (100-2); HCT116 Resistant lines IC50(nM): >10000 (100-3); HCT116 Resistant lines IC50(nM): >10000 (100-4); HCT116 Resistant lines IC50(nM): >10000 (100-5) | (B) CbA: Sec61α engineered lines IC50(nM): 12 (WT); Sec61α engineered lines IC50(nM): 83 (R66I); Sec61α engineered lines IC50(nM): 20 (T86M); Sec61α engineered lines IC50(nM): 81 (S82P) | (B) AprA: Sec61α engineered lines IC50(nM): 24 (WT); Sec61α engineered lines IC50(nM): >10000 (R66I); Sec61α engineered lines IC50(nM): 2500 (T86M); Sec61α engineered lines IC50(nM): 4700 (S82P)
(§2) A431, HEK293T, and HEK293FRT cells were cultured in DMEM supplemented with 10% FBS. HCT-116 cells were cultured in McCoy’s 5A media supplemented with 10% FBS. U87-MG cells were cultured in Minimum Essential Media (MEM) with 10% FBS, L-glutamine (2 mM), and 1% penicillin and streptomycin. MDA-MB-231 cells were cultured in MEM with Earl’s salts plus 1% penicillin/streptomycin and 10% FBS. All cell lines were incubated at 37 °C under 5% CO2. The activity of synthetic coibamide and photoaffinity analogues was tested in MDA-MB-231 and A549 cells after 72 h by MTS assay. All other cell viability assays were performed by seeding PerkinElmer Viewplate-96 plates at a density of 2.5 × 10^3 cells per well. Cells were allowed 24 h to adhere and then treated with indicated concentrations of inhibitors or vehicle (0.1% DMSO) for a further 72 h. Viability was estimated by the addition of Alamar Blue (Life Technologies) and measuring fluorescence after a further 4 h. Pulse-labeling experiments were performed by seeding six-well plates with 5 × 10^5 cells per well and allowing 24 h for cells to adhere. Cells were washed twice with PBS, then exchanged into Met-Cys free media with indicated concentrations of inhibitors for 30 min. 100 μCi of PerkinElmer EXPRE^35S^35S Protein Labeling Mix was then added per well. Media wer collected, and the cells were harvested by scraping them into ice cold PBS after 30 min. Total protein was acquired by RIPA extraction from the cell pellet. Glycosylated protein was acquired by Concanavalin A purification, and secreted protein was acquired by TCA precipitation of the media. […]

[2] = test system: HCT116 resistant line 100-2; assay: Cell viability, Alamar Blue, CbA-resistant line; assay type: cell-based, human; conditions: 72 h, n = 4 (Figure 5A), read-out: HCT116 Resistant lines IC50 (100-2)
Experimental: as §1, §2

[3] = test system: HCT116 resistant line 100-1; assay: Cell viability, Alamar Blue, CbA-resistant line; assay type: cell-based, human; conditions: 72 h, n = 4 (Figure 5A), read-out: HCT116 Resistant lines IC50 (100-1)
Experimental: as §1, §2

[4] = test system: HCT116 resistant line 100-5; assay: Cell viability, Alamar Blue, CbA-resistant line; assay type: cell-based, human; conditions: 72 h, n = 4 (Figure 5A), read-out: HCT116 Resistant lines IC50 (100-5)
Experimental: as §1, §2

[5] = test system: HCT116 resistant line 100-4; assay: Cell viability, Alamar Blue, CbA-resistant line; assay type: cell-based, human; conditions: 72 h, n = 4 (Figure 5A), read-out: HCT116 Resistant lines IC50 (100-4)
Experimental: as §1, §2

[6] = test system: MDA-MB-231 breast cancer cells; assay: Cell viability, MTS end-point assay; assay type: cell-based, human; conditions: synthetic CbA, 72 h, vehicle 0.1% DMSO
Experimental: (§3) Figure 1 Cytotoxicity of synthetic and Pra-containing coibamides. (A) Structure of CbA. (B) Human MDA-MB-231 breast cancer cells were treated with increasing concentrations of synthetic CbA or vehicle (0.1% DMSO) and cell viability assessed at 72 h by an MTS end-point assay. (C) Structure of Photo-CbA. (D) Human HCT116 cells were treated with increasing concentrations of synthetic or photo-CbA in 0.1% DMSO, and cell viability assessed at 72 h by Alamar Blue assay. TEXT PRINTED IN THE PICTURE: (B) CbA: MDA-MB-231 cell line: IC50(nM): 1.6 | (D) CbA: HCT 116 cell line: IC50(nM): 29.2 | (D) Photo-CbA: HCT 116 cell line: IC50(nM): 6.5
A431, HEK293T, and HEK293FRT cells were cultured in DMEM supplemented with 10% FBS. HCT-116 cells were cultured in McCoy’s 5A media supplemented with 10% FBS. U87-MG cells were cultured in Minimum Essential Media (MEM) with 10% FBS, L-glutamine (2 mM), and 1% penicillin and streptomycin. MDA-MB-231 cells were cultured in MEM with Earl’s salts plus 1% penicillin/streptomycin and 10% FBS. All cell lines were incubated at 37 °C under 5% CO2. The activity of synthetic coibamide and photoaffinity analogues was tested in MDA-MB-231 and A549 cells after 72 h by MTS assay. […] Viability was estimated by the addition of Alamar Blue (Life Technologies) and measuring fluorescence after a further 4 h. […]

[7] = target: HEK293FRT cells stably expressing Sec61α WT (Homo sapiens, UniProt P61619); assay: Cell viability, Alamar Blue, Sec61α engineered lines; assay type: cell-based; conditions: 72 h, n = 4 (Figure 5B)
Chain of HEK293FRT cells stably expressing Sec61α WT (P61619 whole entry): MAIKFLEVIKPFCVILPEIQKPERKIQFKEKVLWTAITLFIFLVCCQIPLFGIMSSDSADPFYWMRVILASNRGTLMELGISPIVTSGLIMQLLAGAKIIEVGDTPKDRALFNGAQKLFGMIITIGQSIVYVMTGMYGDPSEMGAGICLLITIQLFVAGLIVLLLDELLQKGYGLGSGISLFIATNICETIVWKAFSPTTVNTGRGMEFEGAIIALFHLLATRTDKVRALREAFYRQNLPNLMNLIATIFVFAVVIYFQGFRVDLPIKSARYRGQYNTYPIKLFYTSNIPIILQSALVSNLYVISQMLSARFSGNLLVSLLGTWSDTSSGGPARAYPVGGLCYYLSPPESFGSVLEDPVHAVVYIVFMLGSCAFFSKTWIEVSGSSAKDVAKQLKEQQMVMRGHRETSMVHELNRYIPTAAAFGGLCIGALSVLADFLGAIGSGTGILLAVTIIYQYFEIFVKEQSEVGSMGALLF
Experimental: (§4) Figure 5 CbA mode of inhibition is specific compared to known Sec61 inhibitors. (A) Cell viability was measured by Alamar Blue assay (mean ± SD, n = 4, all cell lines assayed simultaneously) for HCT-116 cell lines isolated on the basis of CbA resistance in the presence of concentration series of indicated compounds. (B) Cell viability was measured by Alamar Blue assay (mean ± SD, n = 4, all cell lines assayed simultaneously) for HEK293FRT cells stably expressing Sec61α mutants in the presence of concentration series of indicated compounds. (C) Comparison of published NCI60 data for CbA,[3] AprA,[11] and IpoF.[33] The heat map was derived by plotting each GI50 value divided by the median GI50 for that compound. X indicates a cell line that was not tested. Closed arrowhead indicates cell lines with most notable differences across the three compounds. […]
(§5) A431, HEK293T, and HEK293FRT cells were cultured in DMEM supplemented with 10% FBS. […] Viability was estimated by the addition of Alamar Blue (Life Technologies) and measuring fluorescence after a further 4 h. […]

[8] = test system: A549 human lung adenocarcinoma cells; conditions: 72 h
HCT116 cells = assay: Cell viability, Alamar Blue assay; assay type: cell-based, human
Experimental: as §3, §4, §5

## CC[C@H](C)[C@H]1C(=O)N[C@@H](C)C(=O)N(C)[C@@H](CC(C)C)C(=O)N[C@@H](Cc2ccc(OC)cc2)C(=O)N(C)[C@H](C)C(=O)O[C@H](C)[C@H](N(C)C(=O)[C@H](CC(C)C)N(C)C(=O)[C@H](COC)N(C)C(=O)[C@H](OC(=O)[C@H](C(C)C)N(C)C)C(C)C)C(=O)N(C)[C@@H](COC)C(=O)N1C [CbA, Coibamide A] (NMe2Val-[dHiv][NMeS](Me)[NMeL][NMeT][NMeS](Me)[NMeI]A[NMeL]Y(Me)[dNMeA]; ester 4-C)
[1]
  IC50: 5800 nM
[2]
  IC50: 7500 nM
[3]
  IC50: 6500 nM
[4]
  IC50: 3800 nM
[5]
  IC50: 7800 nM
[6]
  IC50: 1.6 nM
[7]
  IC50: 12 nM
[8]
  IC50: 2.1 ± 0.7 nM
HCT116 cells; HCT116, 72 h, 0.1% DMSO (Figure 1D), read-out: IC50
  IC50: 29.2 nM
HCT116 cells; HCT116 WT, 72 h, mean ± SD, n = 4 (Figure 5A), read-out: HCT116 Resistant lines IC50 (WT)
  IC50: 24 nM

Source: paper PMC7497630, “Coibamide A Targets Sec61 to Prevent Biogenesis of Secretory and Membrane Proteins” (ACS Chemical Biology, 2020)
